Data published in US20260008818A1, “CYCLIC PEPTIDE OR SALT THEREOF, AND USES THEREOF” (FUJIFILM Corporation, priority 2023, published 2026).
Numbered stars: 1 amine (or outer) side, 2 acyl side, 3 side chain; on linkers, the order of the positions; unused ones are H or OH. Bridge positions count the residues as written; N and C are the ends. Ends that are not written are not given here. acetyl = K(acetyl): lysine side chain modified with a haloacetyl group whose halogen is replaced by the thiol of another residue, giving a thioether ring, O=C(C[*:1])[*:2]; COCH2 = acetyl group that carries the bridge

System: Recombinant Human FGFR1 alpha (IIIc) Fc Chimera Protein
Experiment: Binding affinity of enzymatically synthesized cyclic peptide to FGFR by ELISA
Settings: luminescence signal at reaction concentration 10 nmol/L, SEQ ID NO: 39 standardized to 1, enzyme synthesis product
How it was run: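 Plate-immobilized FGFR1α(IIIc)-Fc (5 ng/well) incubated with Myc-tagged cyclic peptide 3 h at room temperature; bound peptide detected with anti-Myc antibody (2 h) and chemiluminescence. Signal is FGFR minus no-FGFR wells, normalized to SEQ ID NO: 39 at 10 nmol/L and graded A–D.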

205 (HCSYERLQFHGHEAPFRYK(COCH2)V; thioether 2-19 via Ac; not fully specified) [compound 205]
Evaluation result of binding affinity to FGFR: B (0.5 or more and less than 0.7)

215 (HCSYERLQFHGHEAPFRVK(COCH2)W; thioether 2-19 via Ac; not fully specified) [compound 215]
Evaluation result of binding affinity to FGFR: B (0.5 or more and less than 0.7)

108 (HCSYERLQFHQHEAPFRVK(COCH2)V; thioether 2-19 (inferred)) [compound 108]
Evaluation result of binding affinity to FGFR: C (0.1 or more and less than 0.5)

61 (HCSYERLQFAGHEAPFRVK(COCH2)V; thioether 2-19 (inferred)) [compound 61]
Evaluation result of binding affinity to FGFR: A (0.7 or more)

145 (HCSYERLGFHGHEAPFRVK(COCH2)V; thioether 2-19 (inferred)) [compound 145]
Evaluation result of binding affinity to FGFR: C (0.1 or more and less than 0.5)

54 (HCYERLQFHGHEAPFRVK(COCH2)V; thioether 2-18 (inferred)) [compound 54]
Evaluation result of binding affinity to FGFR: A (0.7 or more)

209 (HCSYERLQFHGHEAPFRHK(COCH2)V; thioether 2-19 via Ac; not fully specified) [compound 209]
Evaluation result of binding affinity to FGFR: B (0.5 or more and less than 0.7)

134 (HCSYHRLQFHGHEAPFRVK(COCH2)V; thioether 2-19 (inferred)) [compound 134]
Evaluation result of binding affinity to FGFR: A (0.7 or more)

81 (RCSYERLQFHGHEAPFRVKV; not fully specified; Description of Artificial Sequence: Cyclic peptide) [compound 81]
Evaluation result of binding affinity to FGFR: A (0.7 or more)

364 (WCQLRFQGHLAPFIIK(COCH2)S; thioether 2-16) [compound 364]
Evaluation result of binding affinity to FGFR: C (0.1 or more and less than 0.5)

257 (VCPLTLQGWQAPFWVVK(COCH2)E; thioether 2-17 (inferred)) [compound 257]
Evaluation result of binding affinity to FGFR: C (0.1 or more and less than 0.5)

213 (HCSYERLQFHGHEAPFRVK(COCH2)Y; thioether 2-19 via Ac; not fully specified) [compound 213]
Evaluation result of binding affinity to FGFR: A (0.7 or more)

68 (PCSYERLQFHGHEAPFRVK(COCH2)V; thioether 2-19 (inferred)) [compound 68]
Evaluation result of binding affinity to FGFR: A (0.7 or more)

170 (HCSYERLQFNGHEAPFRVK(COCH2)V; thioether 2-19 (inferred)) [compound 170]
Evaluation result of binding affinity to FGFR: B (0.5 or more and less than 0.7)

299 (HCSYEMLQFHGHEAPFRVK(COCH2)V; thioether 2-19 (inferred)) [compound 299]
Evaluation result of binding affinity to FGFR: C (0.1 or more and less than 0.5)

296 (HCMYERLQFHGHEAPFRVK(COCH2)V; thioether 2-19 (inferred)) [compound 296]
Evaluation result of binding affinity to FGFR: A (0.7 or more)

232 (HK(COCH2)TYERLIFLGHIAPFWVCR; thioether 2-19 (inferred)) [compound 232]
Evaluation result of binding affinity to FGFR: B (0.5 or more and less than 0.7)

229 (HK(COCH2)VWERLIFLGHIAPFWVCR; thioether 2-19 (inferred)) [compound 229]
Evaluation result of binding affinity to FGFR: B (0.5 or more and less than 0.7)

47 (SCWTQLQWQAHLAPFWTK(COCH2)V; thioether 2-18 (inferred)) [compound 47]
Evaluation result of binding affinity to FGFR: C (0.1 or more and less than 0.5)

171 (HCSYERLQFQGHEAPFRVK(COCH2)V; thioether 2-19 (inferred)) [compound 171]
Evaluation result of binding affinity to FGFR: A (0.7 or more)

221 (HCSYERLQFHGHEAPFRVK(COCH2)E; thioether 2-19 (inferred)) [compound 221]
Evaluation result of binding affinity to FGFR: A (0.7 or more)

92 (HCTYERLQFHGHEAPFRVK(COCH2)V; thioether 2-19 via acetyl; not fully specified; printed as H-(C)-TYERLQFHGHEAPFRV-(K(acetyl))-V) [compound 92]
Evaluation result of binding affinity to FGFR: A (0.7 or more)

83 (HCPYERLQFHGHEAPFRVKV; not fully specified; Description of Artificial Sequence: Cyclic peptide) [compound 83]
Evaluation result of binding affinity to FGFR: A (0.7 or more)

247 (ACKYVPHIFQQHQAPYLVK(COCH2)S; thioether 2-19 (inferred)) [compound 247]
Evaluation result of binding affinity to FGFR: B (0.5 or more and less than 0.7)

85 (HCIYERLQFHGHEAPFRVKV; not fully specified; Description of Artificial Sequence: Cyclic peptide) [compound 85]
Evaluation result of binding affinity to FGFR: A (0.7 or more)

60 (HCSYERLAFHGHEAPFRVK(COCH2)V; thioether 2-19 (inferred)) [compound 60]
Evaluation result of binding affinity to FGFR: B (0.5 or more and less than 0.7)

58 (HCSYARLQFHGHEAPFRVK(COCH2)V; thioether 2-19 (inferred)) [compound 58]
Evaluation result of binding affinity to FGFR: B (0.5 or more and less than 0.7)

34 (CRALLRGAPFHLAEC; disulfide 1-15) [compound 34]
Evaluation result of binding affinity to FGFR: D (less than 0.1)

360 (DCWGWHREFVPFIK(COCH2)I; thioether 2-14) [compound 360]
Evaluation result of binding affinity to FGFR: B (0.5 or more and less than 0.7)

100 (HCSFERLQFHGHEAPFRVK(COCH2)V; thioether 2-19 (inferred)) [compound 100]
Evaluation result of binding affinity to FGFR: A (0.7 or more)

245 (WCQYVYLSHVAPFLVRK(COCH2)E; thioether 2-17 (inferred)) [compound 245]
Evaluation result of binding affinity to FGFR: C (0.1 or more and less than 0.5)

255 (RCWRQIRYGQLLAPFLVK(COCH2)Q; thioether 2-18 (inferred)) [compound 255]
Evaluation result of binding affinity to FGFR: C (0.1 or more and less than 0.5)

71 (VCSYERLQFHGHEAPFRVK(COCH2)V; thioether 2-19 (inferred)) [compound 71]
Evaluation result of binding affinity to FGFR: A (0.7 or more)

212 (HCSYERLQFHGHEAPFRVK(COCH2)I; thioether 2-19 via Ac; not fully specified) [compound 212]
Evaluation result of binding affinity to FGFR: A (0.7 or more)

238 (HK(COCH2)TWERLIFLGHVAPFWVCR; thioether 2-19 (inferred)) [compound 238]
Evaluation result of binding affinity to FGFR: B (0.5 or more and less than 0.7)

363 (TCSILKHPWGAPFLVK(COCH2)T; thioether 2-16) [compound 363]
Evaluation result of binding affinity to FGFR: C (0.1 or more and less than 0.5)

279 (YCTIQRLWLLHEAPFWVK(COCH2)T; thioether 2-18 (inferred)) [compound 279]
Evaluation result of binding affinity to FGFR: C (0.1 or more and less than 0.5)

156 (HCSYERLRFHGHEAPFRVK(COCH2)V; thioether 2-19 (inferred)) [compound 156]
Evaluation result of binding affinity to FGFR: A (0.7 or more)

173 (HCSYERLQFTGHEAPFRVK(COCH2)V; thioether 2-19 (inferred)) [compound 173]
Evaluation result of binding affinity to FGFR: C (0.1 or more and less than 0.5)

59 (HCSYEALQFHGHEAPFRVK(COCH2)V; thioether 2-19 (inferred)) [compound 59]
Evaluation result of binding affinity to FGFR: C (0.1 or more and less than 0.5)

41 (TCFVQLWFVDKPAPFLVK(COCH2)T; thioether 2-18 (inferred)) [compound 41]
Evaluation result of binding affinity to FGFR: B (0.5 or more and less than 0.7)

275 (WCIRRLYSPWGHVAPFWVK(COCH2)P; thioether 2-19 (inferred)) [compound 275]
Evaluation result of binding affinity to FGFR: B (0.5 or more and less than 0.7)

130 (HCSYSRLQFHGHEAPFRVK(COCH2)V; thioether 2-19 (inferred)) [compound 130]
Evaluation result of binding affinity to FGFR: B (0.5 or more and less than 0.7)

185 (HCSYERLQFHGHQAPFRVK(COCH2)V; thioether 2-19 via Ac) [compound 185]
Evaluation result of binding affinity to FGFR: A (0.7 or more)

337 (ACLPFLRIIIAGHWAPFLAK(COCH2)Q; thioether 2-20 (inferred)) [compound 337]
Evaluation result of binding affinity to FGFR: C (0.1 or more and less than 0.5)

144 (HCSYERHQFHGHEAPFRVK(COCH2)V; thioether 2-19 (inferred)) [compound 144]
Evaluation result of binding affinity to FGFR: A (0.7 or more)

342 (NCIPFWWQQHWWQYPVRVVK(COCH2)T; thioether 2-20) [compound 342]
Evaluation result of binding affinity to FGFR: C (0.1 or more and less than 0.5)

350 (LCSITRIQLFGYHAPFWHVVK(COCH2)S; thioether 2-21) [compound 350]
Evaluation result of binding affinity to FGFR: C (0.1 or more and less than 0.5)

358 (NCWVQWFLSGHVVPFLVSLK(COCH2)S; thioether 2-20) [compound 358]
Evaluation result of binding affinity to FGFR: C (0.1 or more and less than 0.5)

319 (HCTWERLIFQGHIAPFWVK(COCH2)R; thioether 2-19 (inferred)) [compound 319]
Evaluation result of binding affinity to FGFR: C (0.1 or more and less than 0.5)

164 (HCSYERLQFLGHEAPFRVK(COCH2)V; thioether 2-19 (inferred)) [compound 164]
Evaluation result of binding affinity to FGFR: A (0.7 or more)

191 (HCSYERLQFHGHEAPFLVK(COCH2)V; thioether 2-19 via Ac) [compound 191]
Evaluation result of binding affinity to FGFR: A (0.7 or more)

219 (HCSYERLQFHGHEAPFRVK(COCH2)T; thioether 2-19 via Ac; not fully specified) [compound 219]
Evaluation result of binding affinity to FGFR: A (0.7 or more)

359 (WCPWGDIHVVPFHK(COCH2)V; thioether 2-14) [compound 359]
Evaluation result of binding affinity to FGFR: C (0.1 or more and less than 0.5)

74 (WCSYERLQFHGHEAPFRVK(COCH2)V; thioether 2-19 (inferred)) [compound 74]
Evaluation result of binding affinity to FGFR: A (0.7 or more)

340 (HCLVKRLVSAWGELAPFWVK(COCH2)V; thioether 2-20) [compound 340]
Evaluation result of binding affinity to FGFR: C (0.1 or more and less than 0.5)
